{"source": "patent US20020019420A1", "about": "“Methods and compositions for treating gastric disorders using optically pure (+)-pantoprazole” (Sepracor Inc., priority 1993, published 2002)", "key": {"[1]": {"test_system": "endogenous acid secretion", "details": "pylorus-ligated rats, cited from earlier work"}, "[2]": {"details": "cited from earlier work"}, "[3]": {"experiment": "acute toxicity LD50 in mice", "assay_type": "in vivo"}, "[4]": {"test_system": "hepatic drug metabolizing enzyme systems", "details": "intact rats and rat microsomal enzyme preparations; cited from earlier work"}, "[5]": {"details": "rats, two year study; cited from earlier work"}, "[6]": {"test_system": "endogenous acid secretion", "experiment": "reduction of endogenous acid secretion in pylorus-ligated rats", "assay_type": "in vivo, rat", "source_text": "This may increase pantoprazole's selectivity for the acid secreting parietal cells, where low pH conditions exist in the intracellular canaliculi. In intact animals, pantoprazole is active in inhibiting gastric acid secretion in both rats and dogs. Specifically, the intravenous and oral doses required to reduce endogenous acid secretion in pylorus-ligated rats by 50% are in the 1-3 μmole/kg range. […] Racemic pantoprazole is also effective at doses less than 5 μmole/kg in inhibiting exogenously stimulated acid. secretion induced by a variety of agonists, indicating general activity of the drug in inhibiting acid secretion."}, "[7]": {"details": "neutral and moderately acidic conditions; cited from earlier work"}, "[8]": {"details": "humans, short-term administration; cited from earlier work"}, "[9]": {"details": "patients with duodenal ulcers, after four weeks of 20 to 80 mg per day; cited from earlier work"}, "[10]": {"details": "rat, cited from earlier work"}, "[11]": {"test_system": "exogenously stimulated acid secretion", "details": "variety of agonists; cited from earlier work"}, "[12]": {"details": "weak acid; cited from earlier work"}, "beta-adrenergic": {"test_system": "beta-adrenergic", "details": "L-form versus D-enantiomer; cited from earlier work"}}, "note": "Where two headings read alike, the source gives them in different places."}
{"smiles": "COc1ccnc(C[S+]([O-])c2nc3ccc(OC(F)F)cc3[nH]2)c1OC", "note": "(racemic) [racemic pantoprazole]", "values": [{"measurement": "intravenous dose required to reduce endogenous acid secretion by 50%", "setting": "[1]; intravenous", "value": "1 to 3", "unit": "µmol/kg"}, {"measurement": "oral dose required to reduce endogenous acid secretion by 50%", "setting": "[1]; oral", "value": "1 to 3", "unit": "µmol/kg"}, {"measurement": "intravenous LD50", "setting": "[2]; mice, intravenous", "value": 975, "unit": "µmol/kg"}, {"measurement": "oral LD50", "setting": "[2]; mouse, in vivo, po", "value": "1,893 μmol/kg"}, {"measurement": "p.o./i.v. LD50 ratio", "setting": "[3]", "value": "approximately 2"}, {"measurement": "inhibition of hepatic drug metabolizing enzyme systems compared to omeprazole", "setting": "[4]", "value": "weaker inhibitor"}, {"measurement": "finding in carcinogenicity study", "setting": "[5]", "value": "hepatocellular neoplasia"}, {"measurement": "calculated oral/intravenous (p.o./i.v.) ratio of the 50% doses", "setting": "[6]", "value": "approximately 2"}, {"measurement": "chemical stability compared with omeprazole", "setting": "[7]", "value": "more chemically stable"}, {"measurement": "fasting serum gastrin levels", "setting": "[8]", "value": "significantly elevated"}, {"measurement": "ulcer healing", "setting": "[9]", "value": "90-100%"}, {"measurement": "oral LD50", "setting": "[10]; in vivo, po", "value": "> 2,467 μmol/kg"}, {"measurement": "intravenous LD50", "setting": "[10]; intravenous", "value": 632, "unit": "µmol/kg"}, {"measurement": "effective dose inhibiting exogenously stimulated acid secretion", "setting": "[11]", "value": "less than 5 μmole/kg"}]}
{"smiles": "COc1ccnc(C[S+]([O-])c2nc3ccc(OC(F)F)cc3[nH]2)c1OC", "note": "(single isomer, unassigned; (+)) [(+) pantoprazole, (+) isomer of 5-(difluoromethoxy)-2-[[3,4-dimethoxy-2-pyridinyl)methyl]sulfinyl]-1H-benzimidazole]", "values": [{"measurement": "PKa", "setting": "[12]", "value": 8.2}]}
{"smiles": "CC(C)NC[C@H](O)COc1cccc2ccccc12", "note": "[L-form of propranolol, propranolol]", "values": [{"measurement": "potency relative to the D-enantiomer", "setting": "beta-adrenergic", "value": 100, "unit": "times"}]}
